Data reported in US10052330B2, “Substituted pyrido[3,4-b]pyrazines as Syk inhibitors” (HUTCHISON MEDIPHARMA LIMITED, priority 2011, dated 2018).

Experiments:
Syk kinase = Syk kinase (Homo sapiens, UniProt P43405); assay: Syk kinase enzymatic assay (Kit-Tyr 2 Peptide); format: biochemical; settings: 8 concentrations, 1 μM down to 0.0003 μM; upper bound of each range is 'less than'; read-out: IC50: Enzymatic Activity (Syk kinase)
RBL-2H3 cells = assay: IgE-induced Beta-hexosaminidase secretion in RBL-2H3 cells; format: cell-based; settings: Rattus norvegicus, RBL-2H3, RBL-2H3 cells sensitized with SPE-7, stimulated with DNP-BSA; upper bound of each range is 'less than'; read-out: IC50, IgE-induced Beta-hexosaminidase secretion

COc1ccc(-c2cc3nccnc3c(NC[C@H]3CCCNC3)n2)c(F)c1 [Compound 68]
IC50 (Syk kinase): 0.1 to 1 µM
IC50 (RBL-2H3 cells): 0.1 to 1 µM

Cc1ccc(-c2cc3nccnc3c(NC[C@H]3CCCNC3)n2)cn1 [Compound 69]
IC50 (Syk kinase): 0.1 to 1 µM
IC50 (RBL-2H3 cells): 0.1 to 1 µM

CCN(CC)c1ccc(-c2cc3nccnc3c(NCC3CCCNC3)n2)cc1 (stereo not shown) [Compound 73]
IC50 (Syk kinase): 0.001 to 0.1 µM
IC50 (RBL-2H3 cells): 0.1 to 1 µM

Nc1ccc(-c2cc3nccnc3c(NCC3CCCNC3)n2)cc1 (stereo not shown) [Compound 74]
IC50 (Syk kinase): 0.001 to 0.1 µM
IC50 (RBL-2H3 cells): 0.1 to 1 µM

Nc1ccc(-c2cc3nccnc3c(NC[C@@H]3CCCNC3)n2)cc1Cl [Compound 75]
IC50 (Syk kinase): 0.1 to 1 µM
IC50 (RBL-2H3 cells): 0.1 to 1 µM

Cc1ccc(-c2cc3nccnc3c(NC[C@@H]3CCCNC3)n2)cc1Cl [Compound 76]
IC50 (Syk kinase): 0.1 to 1 µM
IC50 (RBL-2H3 cells): 0.1 to 1 µM

COCCOc1ccc(-c2cc3nccnc3c(NCC3CCCNC3)n2)cc1 (stereo not shown) [Compound 78]
IC50 (Syk kinase): 0.001 to 0.1 µM
IC50 (RBL-2H3 cells): 0.1 to 1 µM

CC(C)(C)c1ccc(-c2cc3nccnc3c(NC[C@H]3CCCNC3)n2)cc1 [Compound 79]
IC50 (Syk kinase): 0.001 to 0.1 µM
IC50 (RBL-2H3 cells): 0.1 to 1 µM

Cc1ccc(-c2cc3nccnc3c(NC[C@H]3CCCNC3)n2)cc1Cl [Compound 80]
IC50 (Syk kinase): 0.001 to 0.1 µM
IC50 (RBL-2H3 cells): 0.1 to 1 µM

CC(C)(C)c1ccc(-c2cc3nccnc3c(NC[C@@H]3CCCNC3)n2)cc1 [Compound 83]
IC50 (Syk kinase): 0.001 to 0.1 µM
IC50 (RBL-2H3 cells): 0.1 to 1 µM

CNc1ccc(-c2cc3nccnc3c(NC[C@@H]3CCCNC3)n2)cc1 [Compound 84]
IC50 (Syk kinase): 0.1 to 1 µM
IC50 (RBL-2H3 cells): 0.1 to 1 µM

Clc1ccc(-c2cc3nccnc3c(NC[C@H]3CCCNC3)n2)cc1 [Compound 85]
IC50 (Syk kinase): 0.001 to 0.1 µM
IC50 (RBL-2H3 cells): 0.1 to 1 µM

CC(C)Oc1ccc(-c2cc3nccnc3c(NC[C@H]3CCCNC3)n2)cc1F [Compound 86]
IC50 (Syk kinase): 0.001 to 0.1 µM
IC50 (RBL-2H3 cells): 0.1 to 1 µM

c1cnc2c(NC[C@H]3CCCNC3)nc(-c3ccc(N4CCOCC4)nc3)cc2n1 [Compound 87]
IC50 (Syk kinase): 0.001 to 0.1 µM
IC50 (RBL-2H3 cells): 0.1 to 1 µM

CC(C)Oc1ccc(-c2cc3nccnc3c(NC[C@@H]3CCCNC3)n2)cc1F [Compound 88]
IC50 (Syk kinase): 0.1 to 1 µM
IC50 (RBL-2H3 cells): 0.1 to 1 µM

c1cnc2c(NC[C@@H]3CCCNC3)nc(-c3ccc(N4CCOCC4)nc3)cc2n1 [Compound 89]
IC50 (Syk kinase): 0.1 to 1 µM
IC50 (RBL-2H3 cells): 0.1 to 1 µM

CN(C)c1ccc(-c2cc3nccnc3c(NC[C@H]3CNCCO3)n2)cc1 [Compound 92]
IC50 (Syk kinase): 0.1 to 1 µM
IC50 (RBL-2H3 cells): 0.1 to 1 µM

COc1ccc(-c2cc3nccnc3c(NC[C@H]3CNCCO3)n2)cc1F [Compound 95]
IC50 (Syk kinase): 0.1 to 1 µM
IC50 (RBL-2H3 cells): 0.1 to 1 µM

c1cnc2c(NC[C@H]3CNCCO3)nc(-c3ccc(N4CCOCC4)nc3)cc2n1 [Compound 97]
IC50 (Syk kinase): 0.1 to 1 µM
IC50 (RBL-2H3 cells): 0.1 to 1 µM

CC(C)Oc1ccc(-c2cc3nccnc3c(NC[C@@H]3CNCCO3)n2)cc1F [Compound 100]
IC50 (Syk kinase): 0.1 to 1 µM
IC50 (RBL-2H3 cells): 0.1 to 1 µM

CN(C)c1ccc(-c2cc3nccnc3c(NC[C@@H]3CNCCO3)n2)cn1 [Compound 102]
IC50 (Syk kinase): 0.001 to 0.1 µM
IC50 (RBL-2H3 cells): 0.001 to 0.1 µM

c1cnc2c(NC[C@@H]3CNCCO3)nc(-c3ccc(N4CCCC4)nc3)cc2n1 [Compound 103]
IC50 (Syk kinase): 0.001 to 0.1 µM
IC50 (RBL-2H3 cells): 0.1 to 1 µM

CN(C)c1ccc(-c2cc3nccnc3c(NC[C@H]3CNCCO3)n2)cn1 [Compound 106]
IC50 (Syk kinase): 0.1 to 1 µM
IC50 (RBL-2H3 cells): 0.1 to 1 µM

NCC1CCN(c2nc(-c3ccc(N4CCOCC4)cc3)cc3nccnc23)CC1 [Compound 108]
IC50 (Syk kinase): 0.1 to 1 µM
IC50 (RBL-2H3 cells): 0.1 to 1 µM

Fc1cc(-c2cc3nccnc3c(N3CCC4(CCCNC4)C3)n2)ccc1N1CCOCC1 (stereo not shown) [Compound 109]
IC50 (Syk kinase): 0.001 to 0.1 µM
IC50 (RBL-2H3 cells): 0.001 to 0.1 µM

Cc1cc(-c2cc3nccnc3c(N3CCC4(CCCNC4)C3)n2)ccc1N1CCOCC1 (stereo not shown) [Compound 110]
IC50 (Syk kinase): 0.001 to 0.1 µM
IC50 (RBL-2H3 cells): 0.001 to 0.1 µM

CN(C)c1ccc(-c2cc3nccnc3c(N3CCC4(CCCNC4)C3)n2)cc1 (stereo not shown) [Compound 111]
IC50 (Syk kinase): 0.001 to 0.1 µM
IC50 (RBL-2H3 cells): 0.001 to 0.1 µM

c1cnc2c(N3CCC4(CCCNC4)C3)nc(-c3ccc(N4CCCC4)cc3)cc2n1 (stereo not shown) [Compound 112]
IC50 (Syk kinase): 0.001 to 0.1 µM
IC50 (RBL-2H3 cells): 0.1 to 1 µM

c1cnc2c(NC[C@@H]3CNCCO3)nc(-c3ccc(N4CCCC4)cc3)cc2n1 [Compound 114]
IC50 (Syk kinase): 0.001 to 0.1 µM
IC50 (RBL-2H3 cells): 0.001 to 0.1 µM

Cc1cc(-c2cc3nccnc3c(NC[C@H]3CNCCO3)n2)ccc1N1CCOCC1 [Compound 115]
IC50 (Syk kinase): 0.1 to 1 µM
IC50 (RBL-2H3 cells): 0.001 to 0.1 µM

c1cnc2c(NC[C@@H]3CCCNC3)nc(-c3ccc(N4CCCC4)cc3)cc2n1 [Compound 119]
IC50 (Syk kinase): 0.001 to 0.1 µM
IC50 (RBL-2H3 cells): 0.1 to 1 µM

Cc1cc(-c2cc3nccnc3c(NC[C@@H]3CCCNC3)n2)ccc1N1CCOCC1 [Compound 120]
IC50 (Syk kinase): 0.001 to 0.1 µM
IC50 (RBL-2H3 cells): 0.1 to 1 µM

Fc1cc(-c2cc3nccnc3c(NC[C@@H]3CCCNC3)n2)ccc1N1CCOCC1 [Compound 121]
IC50 (Syk kinase): 0.001 to 0.1 µM
IC50 (RBL-2H3 cells): 0.1 to 1 µM

CN1CCN(c2ccc(-c3cc4nccnc4c(NC[C@@H]4CCCNC4)n3)cc2)CC1 [Compound 122]
IC50 (Syk kinase): 0.001 to 0.1 µM
IC50 (RBL-2H3 cells): 0.1 to 1 µM

CN1CCN(c2ccc(-c3cc4nccnc4c(NC[C@@H]4CNCCO4)n3)cc2)CC1 [Compound 123]
IC50 (Syk kinase): 0.001 to 0.1 µM
IC50 (RBL-2H3 cells): 0.001 to 0.1 µM

O=C1CCCN1c1ccc(-c2cc3nccnc3c(NC[C@@H]3CNCCO3)n2)cc1 [Compound 124]
IC50 (Syk kinase): 0.1 to 1 µM
IC50 (RBL-2H3 cells): 0.1 to 1 µM

CN1CCN(c2ccc(-c3cc4nccnc4c(N4CC[C@@H](CO)C4)n3)cc2)CC1 [Compound 127]
IC50 (Syk kinase): 0.001 to 0.1 µM
IC50 (RBL-2H3 cells): 0.1 to 1 µM

CN1CCN(c2ccc(-c3cc4nccnc4c(N4CCC(C(N)=O)C4)n3)cc2)CC1 (stereo not shown) [Compound 128]
IC50 (Syk kinase): 0.001 to 0.1 µM
IC50 (RBL-2H3 cells): 0.1 to 1 µM

Fc1cc(-c2cc3nccnc3c(NC[C@H]3CCCNC3)n2)ccc1N1CCOCC1 [Compound 129]
IC50 (Syk kinase): 0.001 to 0.1 µM
IC50 (RBL-2H3 cells): 0.001 to 0.1 µM

c1cnc2c(N3CCC4(CCCNC4)C3)nc(-c3ccc(N4CCOCC4)nc3)cc2n1 (stereo not shown) [Compound 130]
IC50 (Syk kinase): 0.001 to 0.1 µM
IC50 (RBL-2H3 cells): 0.001 to 0.1 µM

Fc1cc(-c2cc3nccnc3c(NC[C@@H]3CNCCO3)n2)cc(F)c1N1CCOCC1 [Compound 135]
IC50 (Syk kinase): 0.1 to 1 µM
IC50 (RBL-2H3 cells): 0.1 to 1 µM

COc1ccc(-c2cc3nccnc3c(NC[C@@H]3CNCCO3)n2)cc1F [Compound 136]
IC50 (Syk kinase): 0.001 to 0.1 µM
IC50 (RBL-2H3 cells): 0.001 to 0.1 µM

FC(F)Oc1ccc(-c2cc3nccnc3c(NC[C@@H]3CNCCO3)n2)cc1 [Compound 138]
IC50 (Syk kinase): 0.1 to 1 µM
IC50 (RBL-2H3 cells): 0.1 to 1 µM

FC(F)Oc1ccc(-c2cc3nccnc3c(NC[C@H]3CCCNC3)n2)cc1 [Compound 139]
IC50 (Syk kinase): 0.001 to 0.1 µM
IC50 (RBL-2H3 cells): 0.001 to 0.1 µM

CN(C)c1ccc(-c2cc3nccnc3c(NC[C@@H]3CNCCO3)n2)cc1F [Compound 141]
IC50 (Syk kinase): 0.001 to 0.1 µM
IC50 (RBL-2H3 cells): 0.001 to 0.1 µM

CN(C)c1ccc(-c2cc3nccnc3c(NC[C@H]3CCCNC3)n2)cc1F [Compound 142]
IC50 (Syk kinase): 0.001 to 0.1 µM
IC50 (RBL-2H3 cells): 0.001 to 0.1 µM

CNc1ccc(-c2cc3nccnc3c(NC[C@@H]3CNCCO3)n2)cc1 [Compound 143]
IC50 (Syk kinase): 0.001 to 0.1 µM
IC50 (RBL-2H3 cells): 0.001 to 0.1 µM

NC(=O)N[C@@H]1CCN(c2nc(-c3ccc(N4CCOCC4)cc3)cc3nccnc23)C1 [Compound 144]
IC50 (Syk kinase): 0.1 to 1 µM
IC50 (RBL-2H3 cells): 0.1 to 1 µM

CCNC[C@@H]1CCN(c2nc(-c3ccc(N4CCOCC4)cc3)cc3nccnc23)C1 [Compound 148]
IC50 (Syk kinase): 0.1 to 1 µM
IC50 (RBL-2H3 cells): 0.1 to 1 µM

CS(=O)(=O)NC[C@@H]1CCN(c2nc(-c3ccc(N4CCOCC4)cc3)cc3nccnc23)C1 [Compound 149, (R)—N-((1-(7-(4-morpholinophenyl)pyrido[4,3-b]pyrazin-5-yl)pyrrolidin-3-yl)methyl)methanesulfonamide]
IC50 (Syk kinase): 0.1 to 1 µM
IC50 (RBL-2H3 cells): 0.1 to 1 µM
